According to patent US11464756B1, “Mecuna pruriens, L-DOPA and 5-HTP based dietary supplements, pharmaceutical formulations and uses thereof” (priority 2017, dated 2022):

What was measured:
[1] = test system: serotonin levels; test: Short term rise of serotonin levels after taking 5-HTP; type: in vivo; conditions: short term result of taking 5-HTP
Procedure: Recently 5-HTP has been introduced to the US market. […] Taking 5-HTP in any of several forms can raise serotonin levels in a natural way by “Filling the Well”. There appears to be both a short term and long term results from taking 5-HTP. Short term there seems to be a ‘burst’ lasting 4-5 hours when levels rise, and long term as the “reservoir” or “water table” rises, to extend the metaphor, we notice that it takes much less 5-HTP to achieve the same result.

[2] = cited from earlier work

SMILES: N[C@@H](Cc1c[nH]c2ccc(O)cc12)C(=O)O [Example 5-HTP, 5-Hydroxy-tryptophan]
- duration of short term 'burst' when levels rise [1]: 4 to 5 h
- time in which it is decarboxylated in the bloodstream [2]: ≤ 45 min
